Several values for one entry are separate records, joined by “and”; a condition that tells them apart may be missing. Identical values can stand only once. Values belong to the compound of their own block, whether it stands above or below them.
Tested on: 521955-158-R2-J5-PDC complex spheroid growth, % test/control
Test: Anticancer human tumor 521955-158-R2-J5-PDC patient-derived pancreatic carcinoma cell line growth inhibition [Asc]
Conditions: for IC50: curve of first compound; for viability, T/C: stronger effect = lower value
Procedure: Multicellular complex tumor spheroid response to apoptosis pathway targeting inhibitors Alrizomadlin, Pelcitoclax, and Dasminapant in combination with a variety of drugs and investigational agents in selected tumor cell lines
The MDM2 inhibitor alrizomadlin, the Bcl-2/Bcl-xL inhibitor pelcitoclax, and the IAPs inhibitor dasminapant were evaluated both individually and in combination with standard of care and investigational anticancer small molecules within a complex spheroid model of solid tumors. . Complex spheroids include a stromal component modeled by human endothelial cells (HUVEC) and fibroblasts modeled by human mesenchymal stem cells (MSCs). The concentration ranges selected for each drug and investigational agent were based upon clinically achievable concentrations if the clinical Cmax of the agent was known.
Compounds. The drugs and investigational agents: alrizomadlin (APG-115; NSC831270), pelcitoclax (APG-1252; NSC835773), dasminapant (APG-1387;NSC834197), TAK-243 (NSC785004), copanlisib (NSC809693), olaparib (NSC753686), talazoparib (NSC767125), cobimetinib (NSC 768068), eltanexor (KPT-8602, NSC 794443), abemaciclib (NSC 768073), sotorasib (NSC818433), adagrasib (NSC 831453), MRTX-1133 (NSC 836407), Iadademestat (ORY1001, NSC 806812), and RMC-4630 (NSC839698), were obtained from the NCI Developmental Therapeutics Program Chemical Repository. The FDA-approved anticancer drug set is available from the Developmental Therapeutics Program at https://dtp.cancer.gov/organization/dscb/obtaining/available plates.htm. […] The stock solutions were prepared in dimethyl sulfoxide (DMSO, Sigma-Aldrich, St. Louis, MO, cat. D2650) at 800-fold the tested concentration and stored at -70 degrees C prior to their use. All drugs and investigational agents were tested over a range starting from a high concentration at or near the clinical Cmax and decreasing in half-log increments. If the clinical Cmax for an agent had not been determined, the highest concentration tested was 10 microM.
The patient-derived cancer (PDC) cell lines include five colon adenocarcinomas: 186277-243-T-J2-PDC, 616215-338-R-J1-PDC, 439559-082-T-J2-PDC, 463943-066-T-J2-PDC, and 519858-162-T-J1-PDC; three pancreatic carcinomas: 323965-272-R-J2-PDC, 521955-158-R6-J3-PDC, and 521955-158-R2-J5-PDC; two uterine sarcomas: 327498-152-R-J2-PDC and 993429-296-R-J1-PDC; two rhabdomyosarcomas: 755483-174-R-J1-PDC and 772245-204-R-J1-PDC; two soft tissue sarcomas: 126254-015-R-J1-PDC and 494315-158-R-J1-PDC; two malignant fibrous histiocytomas: 317291-083-R-J1-PDC and 596521-263-R-J1-PDC; two breast carcinomas: 171881-019-R-J1-PDC and 885512-296-R-J2-PDC; and one ovarian carcinoma: 6556581-035-R-J-PDC were obtained from the NCI PDMR, (https://pdmr.cancer.gov). The established cell lines HSSY-2 synovial sarcoma (RRID:CVCL 8719), SYO-1 synovial sarcoma (RRID:CVCL_7146), MPNST malignant peripheral neural sheath tumor were obtained from the Sloan Kettering Institute. The following established cell lines were purchased from the American Type Culture Collection (ATCC, Manassas, VA), Sor the received from the NCI repository:, PANC-1 pancreatic carcinoma (CRL-1469, RRID:CVCL_0480), OVCAR-5 ovarian carcinoma (RRID:CVCL_1628), OVCAR-8 ovarian carcinoma (RRID:CVCL_1629), , MCF-7 breast carcinoma (CRL-12584, RRID:CVCL_0031), MDA-MB-231 breast carcinoma (CRL-12532, RRID:CVCL_0062), NCI-H1876 small cell lung carcinoma (CRL-5902, RRID:CVCL_1503), NCI-H510A small cell lung carcinoma (HTB-184, RRID:CVCL_1565), NCI-H1417 (CRL-5869, RRID:CVCL_1469), and NCI-H196 small cell lung carcinoma (CRL-5823, RRID:CVCL_1509). Dr. Peter Houghton (Greehey Children's Cancer Research Institute, University of Texas Health Science Center, San Antonio, TX) provided Rh-18 rhabdomyosarcoma (RRID:CVCL_1659). Pooled donor human umbilical vein endothelial cells (HUVEC, Lonza, cat. CC-2519) and human mesenchymal stem cells (hMSC, Lonza, cat. PT-2501) were purchased from Lonza (Walkersville, MD).
Cell Culture. […]
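Further: spheroids exposed to agents for 7 days before readout.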
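Wherever viability, T/C is given: 100% = DMSO vehicle control viability.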

IC50 (second compound 0.1 µM): 0.0608 µM
IC50 (second compound 0.316 µM): 0.0577 µM
IC50 (second compound 1 µM): 0.142 µM
IC50 (second compound 3.16 µM): 0.392 µM
IC50 (second compound 10 µM): > 3 µM
Compound: Cc1nc(N2CCC3(CC2)COC(C)C3N)c(CO)nc1Sc1ccnc(N)c1Cl (stereo unspecified) + Cc1c(S(C)(=O)=O)c(-c2cc(F)cc(N3CCN(c4ccc(NS(=O)(=O)c5ccc(NC(CCN6CCC(C(=O)OCCCP(=O)(O)O)CC6)CSc6ccccc6)c(S(=O)(=O)C(F)(F)F)c5)cc4)CC3)c2)c(-c2ccc(Cl)cc2)n1C(C)C
viability, T/C (second compound 0.1 µM, first compound 0.00949 µM): 52.9%
viability, T/C (second compound 0.1 µM, first compound 0.03 µM): 55.8%
viability, T/C (second compound 0.1 µM, first compound 0.0949 µM): 45.8%
viability, T/C (second compound 0.1 µM, first compound 0.3 µM): 43.2%
viability, T/C (second compound 0.1 µM, first compound 0.949 µM): 34.9%
viability, T/C (second compound 0.1 µM, first compound 3 µM): 36.9%
viability, T/C (second compound 0.316 µM, first compound 0.00949 µM): 63.6%
viability, T/C (second compound 0.316 µM, first compound 0.03 µM): 65.8%
viability, T/C (second compound 0.316 µM, first compound 0.0949 µM): 38.9%
viability, T/C (second compound 0.316 µM, first compound 0.3 µM): 32.9%
viability, T/C (second compound 0.316 µM, first compound 0.949 µM): 30.4%
viability, T/C (second compound 0.316 µM, first compound 3 µM): 30.5%
viability, T/C (second compound 1 µM, first compound 0.00949 µM): 64.6%
viability, T/C (second compound 1 µM, first compound 0.03 µM): 69.4%
viability, T/C (second compound 1 µM, first compound 0.0949 µM): 48.2%
viability, T/C (second compound 1 µM, first compound 0.3 µM): 39.4%
viability, T/C (second compound 1 µM, first compound 0.949 µM): 44.4%
viability, T/C (second compound 1 µM, first compound 3 µM): 29.4%
viability, T/C (second compound 3.16 µM, first compound 0.00949 µM): 75.9%
viability, T/C (second compound 3.16 µM, first compound 0.03 µM): 64.7%
viability, T/C (second compound 3.16 µM, first compound 0.0949 µM): 61.2%
viability, T/C (second compound 3.16 µM, first compound 0.3 µM): 50.3%
viability, T/C (second compound 3.16 µM, first compound 0.949 µM): 43%
viability, T/C (second compound 3.16 µM, first compound 3 µM): 48.9%
viability, T/C (second compound 10 µM, first compound 0.00949 µM): 230%
viability, T/C (second compound 10 µM, first compound 0.03 µM): 221%
viability, T/C (second compound 10 µM, first compound 0.0949 µM): 179%
viability, T/C (second compound 10 µM, first compound 0.3 µM): 190%
viability, T/C (second compound 10 µM, first compound 0.949 µM): 179%
viability, T/C (second compound 10 µM, first compound 3 µM): 134%

Compound: NC(=O)C(=Cn1cnc(-c2cc(C(F)(F)F)cc(C(F)(F)F)c2)n1)c1cncnc1
viability, T/C (compound 0.000949 µM): 68.4% and 84.3% and 83.5%
viability, T/C (compound 0.003 µM): 42.6% and 54.8% and 95.5%
viability, T/C (compound 0.00949 µM): 37.3% and 48.3% and 47.9%
viability, T/C (compound 0.03 µM): 28.6% and 36.7% and 57.8%
viability, T/C (compound 0.0949 µM): 27.8% and 32.6% and 43.7%
viability, T/C (compound 0.3 µM): 23.8% and 48% and 30.4%

IC50 (second compound 0.03 µM): 5.38 µM
IC50 (second compound 0.0949 µM): 5.58 µM
IC50 (second compound 0.3 µM): 6.04 µM
IC50 (second compound 0.949 µM): 6.7 µM
IC50 (second compound 3 µM): 6.81 µM
Compound: C=C(F)C(=O)N1CCN(c2nc(OCC3CCCN3C)nc3c2CCN(c2cccc4cccc(Cl)c24)C3)CC1CC#N (stereo unspecified) + CCN1C(C(=O)NC23CCC(C(=O)O)(CC2)CC3)C(c2cccc(Cl)c2F)C2(C(=O)Nc3cc(Cl)ccc32)C12CCCCC2
viability, T/C (second compound 0.03 µM, first compound 0.0316 µM): 95.2%
viability, T/C (second compound 0.03 µM, first compound 0.1 µM): 95.1%
viability, T/C (second compound 0.03 µM, first compound 0.316 µM): 77.5%
viability, T/C (second compound 0.03 µM, first compound 1 µM): 85.2%
viability, T/C (second compound 0.03 µM, first compound 3.16 µM): 110%
viability, T/C (second compound 0.03 µM, first compound 10 µM): 0.26%
viability, T/C (second compound 0.0949 µM, first compound 0.0316 µM): 98%
viability, T/C (second compound 0.0949 µM, first compound 0.1 µM): 103%
viability, T/C (second compound 0.0949 µM, first compound 0.316 µM): 71.4%
viability, T/C (second compound 0.0949 µM, first compound 1 µM): 91.5%
viability, T/C (second compound 0.0949 µM, first compound 3.16 µM): 128%
viability, T/C (second compound 0.0949 µM, first compound 10 µM): 0.27%
viability, T/C (second compound 0.3 µM, first compound 0.0316 µM): 110%
viability, T/C (second compound 0.3 µM, first compound 0.1 µM): 98.2%
viability, T/C (second compound 0.3 µM, first compound 0.316 µM): 108%
viability, T/C (second compound 0.3 µM, first compound 1 µM): 113%
viability, T/C (second compound 0.3 µM, first compound 3.16 µM): 141%
viability, T/C (second compound 0.3 µM, first compound 10 µM): 0.27%
viability, T/C (second compound 0.949 µM, first compound 0.0316 µM): 130%
viability, T/C (second compound 0.949 µM, first compound 0.1 µM): 95.8%
viability, T/C (second compound 0.949 µM, first compound 0.316 µM): 109%
viability, T/C (second compound 0.949 µM, first compound 1 µM): 112%
viability, T/C (second compound 0.949 µM, first compound 3.16 µM): 152%
viability, T/C (second compound 0.949 µM, first compound 10 µM): 12.7%
viability, T/C (second compound 3 µM, first compound 0.0316 µM): 120%
viability, T/C (second compound 3 µM, first compound 0.1 µM): 154%
viability, T/C (second compound 3 µM, first compound 0.316 µM): 146%
viability, T/C (second compound 3 µM, first compound 1 µM): 137%
viability, T/C (second compound 3 µM, first compound 3.16 µM): 188%
viability, T/C (second compound 3 µM, first compound 10 µM): 0.35%
